These results are taken from patent US6084072A, “Purified lectin and methods of use” (The Regents of the University of Michigan, priority 1993, dated 2000).

Several values for one entry are separate records, joined by “and”; a condition that tells them apart may be missing. Equal entries are not always repeated.

The test system of assay [1] is asialo-ovine submaxillary mucin. Description: Metal analysis of amaranthin activity in the precipitation assay. The format is binding. The protocol:
For metal analysis two methods were used to determine if metals were necessary for amaranthin activity. 1) Amaranthin was dialyzed against 1 N acetic acid at 4° C. overnight, and then against 20 mM phosphate buffer at pH 7.2. The acid dialyzed amaranthin was then used in the standard precipitation assay with asialo-ovine submaxillary mucin and the indicated additions. 2) After dialysis into metal free buffer, amaranthin was incubated for 1 hour at room temperature in the presence of the indicated ethylene diamine tetraacetate (EDTA) concentrations. Asialo-ovine submaxillary mucin was then added, and the precipitation assay was carried out as usual. All glassware was acid-washed and buffers were passed over a Chelex 100 column, a trademarked, column commercially available from Bio-Rad to remove divalent metal ions.

Assay [2] has as its system well differentiated colonic adenocarcinoma sections. Description: Inhibition of lectin binding with hapten sugars on tissue sections. Further details: species or system human; key to Labeling score: 4^+: Maximum labeling of the brown reaction product; 0: No staining of the slide compared to control sections; 1^+: trace or weak staining definitely not seen on control slides; 2+3^+: stronger staining, but definitely less than maximal. The protocol: (§1) Four micron paraffin embedded tissue sections attached to glass slides were deparaffinized by serial incubations in xylene (twice), absolute ethanol (thrice), 95% ethanol, 70% ethanol, water and finally equilibrated in phosphate buffered saline (PBS), pH 7.0, containing 0.1% bovine serum albumin (BSA) commercially available from Sigma Corp of St. Louis, Mo. The slides were blotted dry adjacent to the tissue sections, and biotinylated lectin was added at a concentration of 10 μg/ml (for ACA) and 20 μg/ml (for PNA) in a quantity sufficient to completely cover the hydrated tissue (100-2001 μl). The lectin was rinsed off after a 30 minute incubation by eight 2-second dips into phosphate buffered saline. The slides were again blotted, and the tissue covered with Streptavidin-horseradish peroxidase (HRP) obtained from Zymed Laboratories, San Francisco, Calif. at a concentration of 10 μg/ml for 30 minutes. The slides were rinsed as mentioned above, and the pigmented reaction product developed by the addition of a freshly prepared chromogen reagent solution prepared within two hours of use as follows.
3,3'-diaminobenzidine was aliqotted at 5 mg/mL in 0.01 M (Tris) tris hydroxy methyl amino methane saline, pH 7.5 and frozen at -70° C. until use. For use, the aliquot was thawed, diluted 1:10 in 0.01 M (Tris) tris hydroxy methyl amino methane saline pH 7.5, and 3.3 μL of 30% H2 O2 were added to each 5 ml. This solution was allowed to stand for 10 min, and 100-200 μl was applied to the tissue sections that had been incubated earlier with biotinylated lectin and Streptavidin-HRP. After 10 min, the slides were rinsed with albumin-free phosphate buffered saline. The tissues were briefly counterstained for 50 seconds with Gill's #3 hematoxylin bovine serum albumin, commercially available from Sigma Corp. of St. Louis, Mo., rinsed with water, and serially dehydrated using graded alcohols and xylene, and embedded in Permount, a trademarked, commercially available product of Allied-Fischer Scientific of Livonia, Mich.
The specificity of lectin binding was evaluated by preincubating the biotinylated lectin with inhibitory hapten sugar for 1-2 hours prior to its application to the tissue. In each instance, the reagents were prepared so that the final concentration of lectin on the slide was either 10 or 20 μg/ml and the hapten sugar was as indicated in the results. Galactose, lactose, GalNAc, and galactose-β1-3N-acetylgalactosamine-α-O-benzyl (T-antigen-α-O-benzyl) were also obtained from Sigma Corp.
The stained sections were examined with a light microscope using a 25× and 40× objective lenses and 10× eyepiece. Evaluation of lectin binding required the use of several approaches. First, the binding specificity was confirmed by coincubation of lectin with hapten sugars known to bind the lectin maximally. Maximum labeling of the brown reaction product was arbitrarily assigned a score 4^+. See Boland, C. R., Bresalier, R. S., and Roberts, J. A. "Assay of lectin binding sites in colonic cancer-associated mucins: comparison of fluorescence microscopy with a quantitative chromatographic technique." J. Histochem. Cytochem., 36: 1329-1334, 1988. No staining of the slide compared to control sections (i.e., in which lectin was omitted from the staining procedure) was assigned a score of 0. Intermediate scores of 1^+ (trace or weak staining definitely not seen on control slides) and 2+3^+ (stronger staining, but definitely less than maximal) were assigned. […] See Boland. This method was used to confirm the binding specificity to known "positive" tissues and to evaluate changes in lectin binding after neuraminidase treatment.
Specimens of well differentiated colonic cancers were incubated with biotinylated lectins. Working concentrations on the slide were 10 μg/ml for ACA and 20 μg/ml for PNA. The hapten sugars galactose (Gal), N-acetylgalactosamine (GalNAc), and Galβ1,3GalNAc-α-O-benzyl (T-antigen) were used to inhibit lectin binding to the tissues. […]

The subject of assay [3] is colonic adenocarcinoma. The format is binding, human. Also on record: key to Labeling of transitional mucosa: 4^+: Maximum labeling of the brown reaction product; 0: No staining of the slide compared to control sections; 1^+: trace or weak staining definitely not seen on control slides; 2+3^+: stronger staining, but definitely less than maximal.
In assay [4] the test system is adenomatous colonic polyps. Description: Lectin histochemistry, adenomatous colonic polyps. It counts as binding, human. As to conditions: glands in adenomatous polyps; mean ± SEM; listed as ACA.
Excerpt: Specimens of adenocarcinoma of the colon and adenomatious colonic polyps from resected specimens were obtained from the Pathology Service at the Ann Arbor Veterans Administration Medical Center. These specimens were obtained at surgery or at colonoscopic polypectomy, fixed in buffered formalin, and embedded in paraffin for routine pathological examination. Additional four micron sections were cut for lectin histochemistry after the pathological diagnosis was confirmed.
as §1, with “The slides were rinsed as mentioned above, and the pigmented reaction product developed by the addition of a freshly prepared chromogen reagent solution prepared within two hours of use as follows.” left out

As for amaranthin, the “% Control reactivity” value in assay [1] (5 mM EDTA) amounted to 100%; in assay [1] (25 mM EDTA), 100%; in assay [1] (Acid dialyzed amaranthin & AOSM) it was 81%; in assay [1] (Acid dialyzed amaranthin & AOSM, 0.1 mM CaCl2), 80%; in assay [1] (Acid dialyzed amaranthin & AOSM, 0.1 mM MgCl2) it was 80%; in assay [1] (Acid dialyzed amaranthin & AOSM, 0.1 mM MnCl2), 79%. The “effect of EDTA on precipitating activity, in words” value in assay [1] (ethylene diamine tetra acetate 5-25 mM) is given as “had no effect”. In addition, the “GalNAc concentration that inhibited labeling” value in assay [2] is recorded as at least 250 mM. Also, the “T-antigen concentration that inhibited labeling” value in assay [2] was at least 100 µM. In addition, the “galactose concentration required for partial inhibition of binding” value in assay [2] is 400 mM. In addition, the “lactose concentration required for partial inhibition of binding” value in assay [2] was determined as 400 mM. In addition, the Labeling score entry was “Trace” in assay [2] (GalNAc 250 mM), 0 in assay [2] (T-antigen 100 μM), 0 in assay [2] (T-antigen 200 μM) and 0 in assay [2] (T-antigen 400 μM). Moreover, in assay [3] (cancer specimens), the “Effect of Newcastle disease virus neuraminidase on labeling” value was “Neither sialidase enhanced labeling”. Besides, the “Effect of V. Cholerae neuraminidase on labeling” value in assay [3] (cancer specimens) is given as “Neither sialidase enhanced labeling”. Moreover, the “Percent of Epithelial Units Labeled” value in assay [3] (malignant glands, mean ± SEM, listed as ACA) was 97±2% and 97%±2%; in assay [4] it was 82±7% and 82%±7% and 82 + 7%. In addition, the “Labeling of transitional mucosa” value in assay [3] (mucosa adjacent to colonic cancer, upper and lower crypt region) was 1^+.
